Test results: PubChem BioAssay AID248 (DTP/NCI, 2004)
Several values for one entry are separate records, joined by “and”; a condition that tells them apart may be missing. Equal entries are not always repeated. Toxic doses and inconclusive results are not listed.

Tested on: L1210 leukemia ip in BDF1 mice, survival T/C
Experiment: NCI In Vivo Anticancer Drug Screen. Data for tumor model L1210 Leukemia (intraperitoneal) in B6D2F1 (BDF1) mice
Conditions: endpoint: mean survival time, higher = longer survival
How it was run: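 Ratio derived from survival: compound-dosed mice over vehicle-dosed mice, all bearing a transplantable tumor.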

[1] = dose: 100.0 mg/kg/injection, schedule: Q01DX009 (ip), vehicle: saline with Tween-80
[2] = dose: 100.0 mg/kg/injection, schedule: Q04DX003 (ip), vehicle: saline with Tween-80
[3] = dose: 200.0 mg/kg/injection, schedule: Q01DX009 (ip), vehicle: saline with Tween-80
[4] = dose: 200.0 mg/kg/injection, schedule: Q04DX003 (ip), vehicle: saline with Tween-80
[5] = dose: 400.0 mg/kg/injection, schedule: Q01DX009 (ip), vehicle: saline with Tween-80
[6] = dose: 400.0 mg/kg/injection, schedule: Q04DX003 (ip), vehicle: saline with Tween-80
[7] = dose: 30.0 mg/kg/injection, schedule: Q01DX Z (ip), vehicle: methylcellulose (MC)
[8] = dose: 100.0 mg/kg/injection, schedule: Q04DX003 (ip), vehicle: gum acacia
[9] = dose: 200.0 mg/kg/injection, schedule: Q04DX003 (ip), vehicle: gum acacia
[10] = dose: 400.0 mg/kg/injection, schedule: Q04DX003 (ip), vehicle: gum acacia

## Cc1ccc(Cl)cc1NC(=O)NCc1cccnc1
dose: 100.0 mg/kg/injection, schedule: Q01DX001 (ip), vehicle: saline with Tween-80
  T/C: 93 % of control
[1]
  T/C: 103 % of control and 91 % of control
dose: 100.0 mg/kg/injection, schedule: Q04DX002 (ip), vehicle: saline with Tween-80
  T/C: 106 % of control and 88 % of control
[2]
  T/C: 107 % of control
dose: 200.0 mg/kg/injection, schedule: Q01DX001 (ip), vehicle: saline with Tween-80
  T/C: 90 % of control
[3]
  T/C: 104 % of control and 92 % of control
dose: 200.0 mg/kg/injection, schedule: Q04DX002 (ip), vehicle: saline with Tween-80
  T/C: 95 % of control and 89 % of control
[4]
  T/C: 100 % of control
dose: 400.0 mg/kg/injection, schedule: Q01DX001 (ip), vehicle: saline with Tween-80
  T/C: 90 % of control
[5]
  T/C: 96 % of control and 113 % of control
dose: 400.0 mg/kg/injection, schedule: Q04DX002 (ip), vehicle: saline with Tween-80
  T/C: 95 % of control and 91 % of control
[6]
  T/C: 103 % of control

## NC(=S)c1ccccc1N
dose: 15.0 mg/kg/injection, schedule: Q01DX Z (ip), vehicle: methylcellulose (MC)
  T/C: 110 % of control
[7]
  T/C: 98 % of control
dose: 60.0 mg/kg/injection, schedule: Q01DX Z (ip), vehicle: methylcellulose (MC)
  T/C: 101 % of control
dose: 120.0 mg/kg/injection, schedule: Q01DX Z (ip), vehicle: methylcellulose (MC)
  T/C: 115 % of control

## C[C@H]1/C(=C/C(=O)OCCN(C)C)CC[C@H]2[C@H]1C(=O)C[C@H]1C(C)(C)[C@@H](O)CC[C@]21C
dose: 5.0 mg/kg/injection, schedule: Q01DX001 (ip), vehicle: other
  T/C: 106 % of control
dose: 10.0 mg/kg/injection, schedule: Q01DX001 (ip), vehicle: other
  T/C: 97 % of control
dose: 20.0 mg/kg/injection, schedule: Q01DX001 (ip), vehicle: other
  T/C: 97 % of control

## Cc1ccc(NC(=S)NCCO)cc1C
[2]
  T/C: 98 % of control
[4]
  T/C: 98 % of control
[6]
  T/C: 97 % of control

## CN(C)C1CCCC/C=C\C(=O)NC1 (configuration not stated)
dose: 25.0 mg/kg/injection, schedule: Q04DX002 (ip), vehicle: saline
  T/C: 99 % of control
dose: 50.0 mg/kg/injection, schedule: Q04DX002 (ip), vehicle: saline
  T/C: 101 % of control
dose: 75.0 mg/kg/injection, schedule: Q01DX001 (ip), vehicle: saline
  T/C: 109 % of control
dose: 100.0 mg/kg/injection, schedule: Q04DX002 (ip), vehicle: saline
  T/C: 99 % of control

## C=CCN(CC=C)C(=O)C1C2CC3OC(=O)C1C3C2 (configuration not stated)
dose: 100.0 mg/kg/injection, schedule: Q04DX003 (ip), vehicle: saline
  T/C: 94 % of control and 104 % of control
dose: 200.0 mg/kg/injection, schedule: Q04DX003 (ip), vehicle: saline
  T/C: 109 % of control and 104 % of control
dose: 400.0 mg/kg/injection, schedule: Q04DX003 (ip), vehicle: saline
  T/C: 94 % of control and 102 % of control

## Cc1ccc2ncccc2c1N (tested in a mixture with another compound)
[8]
  T/C: 93 % of control
[9]
  T/C: 98 % of control
[10]
  T/C: 94 % of control

## CCOc1ccc(NC(=O)CCN2CCC(O)(c3ccccc3)CC2)cc1
[1]
  T/C: 96 % of control
[2]
  T/C: 103 % of control
[3]
  T/C: 86 % of control
[4]
  T/C: 100 % of control
[5]
  T/C: 91 % of control
[6]
  T/C: 95 % of control

## O=C(Cl)c1cccc2c([N+](=O)[O-])cccc12
dose: 22.0 mg/kg/injection, schedule: Q01DX001 (ip), vehicle: other
  T/C: 96 % of control and 100 % of control
dose: 33.0 mg/kg/injection, schedule: Q01DX001 (ip), vehicle: other
  T/C: 103 % of control and 105 % of control
dose: 75.0 mg/kg/injection, schedule: Q01DX001 (ip), vehicle: other
  T/C: 103 % of control and 107 % of control
dose: 100.0 mg/kg/injection, schedule: Q01DX001 (ip), vehicle: other
  T/C: 97 % of control
dose: 200.0 mg/kg/injection, schedule: Q01DX001 (ip), vehicle: other
  T/C: 101 % of control
dose: 400.0 mg/kg/injection, schedule: Q01DX001 (ip), vehicle: other
  T/C: 106 % of control

## CCC1C(=O)OC(=O)c2oc3ccc(Cl)cc3c21 (configuration not stated)
dose: 100.0 mg/kg/injection, schedule: Q01DX001 (ip), vehicle: Klucel (hydroxypropylcellulose) (HPC)
  T/C: 100 % of control
dose: 200.0 mg/kg/injection, schedule: Q01DX001 (ip), vehicle: Klucel (hydroxypropylcellulose) (HPC)
  T/C: 102 % of control
dose: 400.0 mg/kg/injection, schedule: Q01DX001 (ip), vehicle: Klucel (hydroxypropylcellulose) (HPC)
  T/C: 94 % of control

## O=C(NCCc1ccccc1)Nc1ccccc1Cl
dose: 100.0 mg/kg/injection, schedule: Q01DX009 (ip), vehicle: gum acacia
  T/C: 96 % of control
[8]
  T/C: 92 % of control
dose: 200.0 mg/kg/injection, schedule: Q01DX009 (ip), vehicle: gum acacia
  T/C: 115 % of control
[9]
  T/C: 92 % of control
dose: 400.0 mg/kg/injection, schedule: Q01DX009 (ip), vehicle: gum acacia
  T/C: 100 % of control
[10]
  T/C: 97 % of control

## CC(=O)N1CCn2nccc21
dose: 100.0 mg/kg/injection, schedule: Q01DX009 (ip), vehicle: water
  T/C: 103 % of control
dose: 100.0 mg/kg/injection, schedule: Q04DX003 (ip), vehicle: water
  T/C: 97 % of control
dose: 200.0 mg/kg/injection, schedule: Q01DX009 (ip), vehicle: water
  T/C: 112 % of control
dose: 200.0 mg/kg/injection, schedule: Q04DX003 (ip), vehicle: water
  T/C: 106 % of control
dose: 240.0 mg/kg/injection, schedule: Q01DX009 (ip), vehicle: saline
  T/C: 109 % of control
dose: 240.0 mg/kg/injection, schedule: Q01DX009 (ip), vehicle: water
  T/C: 110 % of control
dose: 400.0 mg/kg/injection, schedule: Q01DX009 (ip), vehicle: saline
  T/C: 122 % of control
dose: 400.0 mg/kg/injection, schedule: Q04DX003 (ip), vehicle: water
  T/C: 106 % of control
dose: 666.0 mg/kg/injection, schedule: Q01DX009 (ip), vehicle: saline
  T/C: 122 % of control
dose: 666.0 mg/kg/injection, schedule: Q01DX009 (ip), vehicle: water
  T/C: 90 % of control

## C/C=C(\C)C(=O)O[C@@H]1c2cc3c(cc2-c2c(cc(OC)c(OC)c2OC)[C@@H]2C(=O)OC[C@@H]12)OCO3
dose: 8.0 mg/kg/injection, schedule: Q01DX009 (ip), vehicle: saline + alcohol
  T/C: 94 % of control
dose: 12.0 mg/kg/injection, schedule: Q01DX009 (ip), vehicle: saline + alcohol
  T/C: 108 % of control
dose: 18.0 mg/kg/injection, schedule: Q01DX009 (ip), vehicle: saline + alcohol
  T/C: 105 % of control
dose: 27.0 mg/kg/injection, schedule: Q01DX009 (ip), vehicle: saline + alcohol
  T/C: 100 % of control

## NC(N)=NN=C(CO)CO
dose: 1.0 mg/kg/injection, schedule: Q01DX Z (ip), vehicle: methylcellulose (MC)
  T/C: 103 % of control
dose: 2.0 mg/kg/injection, schedule: Q01DX Z (ip), vehicle: methylcellulose (MC)
  T/C: 111 % of control
dose: 4.0 mg/kg/injection, schedule: Q01DX Z (ip), vehicle: methylcellulose (MC)
  T/C: 109 % of control
dose: 8.0 mg/kg/injection, schedule: Q01DX Z (ip), vehicle: methylcellulose (MC)
  T/C: 117 % of control
dose: 15.0 mg/kg/injection, schedule: Q01DX Z (oral), vehicle: methylcellulose (MC)
  T/C: 89 % of control
[7]
  T/C: 172 % of control
dose: 30.0 mg/kg/injection, schedule: Q01DX Z (ip), vehicle: saline
  T/C: 110 % of control
dose: 30.0 mg/kg/injection, schedule: Q01DX Z (oral), vehicle: methylcellulose (MC)
  T/C: 102 % of control
dose: 60.0 mg/kg/injection, schedule: Q01DX Z (ip), vehicle: saline
  T/C: 108 % of control
dose: 60.0 mg/kg/injection, schedule: Q01DX Z (oral), vehicle: methylcellulose (MC)
  T/C: 93 % of control
dose: 120.0 mg/kg/injection, schedule: Q01DX Z (ip), vehicle: saline
  T/C: 103 % of control
dose: 120.0 mg/kg/injection, schedule: Q01DX Z (oral), vehicle: methylcellulose (MC)
  T/C: 100 % of control
dose: 120.0 mg/kg/injection, schedule: Q01DX Z (oral), vehicle: saline
  T/C: 100 % of control
dose: 240.0 mg/kg/injection, schedule: Q01DX Z (oral), vehicle: saline
  T/C: 100 % of control
dose: 480.0 mg/kg/injection, schedule: Q01DX Z (oral), vehicle: saline
  T/C: 101 % of control
dose: 960.0 mg/kg/injection, schedule: Q01DX Z (oral), vehicle: saline
  T/C: 101 % of control

## CCCCCCCCCCCCCCCCC1Cc2ccccc2C1
dose: 50.0 mg/kg/injection, schedule: Q01DX001 (ip), vehicle: saline
  T/C: 98 % of control
dose: 100.0 mg/kg/injection, schedule: Q01DX001 (ip), vehicle: saline
  T/C: 101 % of control
dose: 200.0 mg/kg/injection, schedule: Q01DX001 (ip), vehicle: saline
  T/C: 107 % of control
dose: 400.0 mg/kg/injection, schedule: Q01DX001 (ip), vehicle: saline
  T/C: 101 % of control
